In US20090176817A1, “Method of Treatment of Diarrhea-Predominant Irritable Bowel Syndrome in a Subject” (priority 2005, published 2009):
Where two headings read alike, the source gives them in different places.

Experiments:
clinical = details: human, in vivo, po
Method: Two randomized, double-blind, placebo controlled, rising dose, crossover studies evaluated the single-dose pharmacokinetics of oral cilansetron over a 4 mg to 64 mg dose range. In one study, 24 male subjects (aged 21-36 years) received, at intervals of […], single oral doses of 4, 8, and 16 mg cilansetron in ascending order and a randomized placebo. In the other study, 24 male subjects received, at intervals of ≧1 week, single oral doses of 16, 32, and 64 mg cilansetron in ascending order and a randomized placebo. All doses were administered under fasted conditions. […] Renal excretion of cilansetron was negligible across all doses, with undetectable or very low amounts (<1% of the dose) excreted unchanged in urine.
Data for the evaluation of dose proportionality of oral cilansetron is available from three studies which have evaluated the pharmacokinetics of single doses over a 2 mg to 64 mg dose range. Two randomized, double-blind, placebo controlled, rising dose, crossover studies, in 24 male subjects each, evaluated the single dose pharmacokinetics of oral cilansetron (capsules) over a 4-16 mg and 16-64 mg dose range, respectively. In each study, subjects received, at intervals of ≧1 week, single oral doses of cilansetron in ascending order and a randomized placebo. All doses were administered under fasted conditions. A third open-label, randomized, parallel-group study in 36 male and female subjects, evaluated the single dose pharmacokinetics of a cilansetron 2 mg tablet administered under fed conditions. FIG. 16 to FIG. 19 present box plots of cilansetron AUC(0-inf) and Cmax from these three studies (males only), and corresponding dose-normalized values (normalized to a 1 mg dose). […] Table 2.7.2.3.14 presents descriptive statistics of cilansetron dose-normalized AUC and Cmax in these studies, and the results of statistical comparisons between doses.

healthy subjects = test: Study K.241.5007: rectal visceral perception; type: in vivo, human; details: mean; for Pressure first producing abdominal pain, Differences from Placebo / Pressure first producing feeling of abdominal sensation, Differences from Placebo / Pressure first producing feeling of need to defecate, Differences from Placebo / Volume first producing abdominal pain, Differences from Placebo / Volume first producing feeling of abdominal sensation, Differences from Placebo / Volume first producing feeling of need to defecate, Differences from Placebo: not significant; for Pressure first producing abdominal pain / Pressure first producing feeling of abdominal sensation / Pressure first producing feeling of need to defecate / Volume first producing abdominal pain / Volume first producing feeling of abdominal sensation / Volume first producing feeling of need to defecate: rectal distension, absolute value
Method: The effect of cilansetron on rectal visceral perception was evaluated in a randomized, doubleblind, placebo-controlled, 4-way crossover study in 12 male healthy subjects (ITT population), aged 18-26 years. Subjects received single IV doses of placebo or cilansetron 4 mg, 8 mg, or 16 mg as 30-minute infusions during each of the periods, with a 14-day washout between periods. Rectal distension tests were done during each treatment, immediately following the completion of each infusion. An electronic barostat was used to produce isobarometric distensions (successive 4 mmHg increases every 5 minutes, up to a sensation of abdominal pain or a maximum of 44 mmHg). The primary efficacy parameter was the distension pressure required to induce a sensation of abdominal pain. Secondary parameters were the distension pressure at the first feeling of abdominal/rectal sensation and the first feeling of need to defecate, and the response rate (defined as the number of subjects who experienced no abdominal pain at the maximum pressure of 44 mmHg). The pain threshold for each of the three cilansetron doses was compared to placebo using a one-sided Dunnett t-test.

[1] = test system: CYP2A6, CYP2B6, CYP2C9, CYP2D6, and CYP2E1
Method: The CYP mRNA induction potentials of cilansetron and its two main metabolites, (4S)-hydroxy and (4R)-hydroxy cilansetron, were determined in human hepatocytes and compared to three model inducers, 3-methylcholantrene, phenobarbital, and rifampin.

[2] = both, human, in vivo
Method: The effect of hepatic impairment on the pharmacokinetics of cilansetron was evaluated in a multiple-dose, parallel group study in 14 healthy and 14 moderately to severely hepatically impaired male and female subjects, aged 41-70 years. Impaired subjects (Child-Pugh score 7 to 11) were matched to healthy subjects by age (±2 years), sex, menstrual status, and smoking history status. All subjects received oral cilansetron 8 mg TID on Days 1 to 5, and a single dose on the morning of Day 6. […] Blood samples were also collected at predose on Day 1, and at predose, 1 hour and 1.5 hours postdose on Day 6, for measurement of cilansetron protein binding in serum.

CYP3A4 = details: hepatocytes
[3] = biological target: purified human serum albumin (Homo sapiens, UniProt P02768); type: in vitro ADME
purified human serum albumin, sequence (P02768 25-609): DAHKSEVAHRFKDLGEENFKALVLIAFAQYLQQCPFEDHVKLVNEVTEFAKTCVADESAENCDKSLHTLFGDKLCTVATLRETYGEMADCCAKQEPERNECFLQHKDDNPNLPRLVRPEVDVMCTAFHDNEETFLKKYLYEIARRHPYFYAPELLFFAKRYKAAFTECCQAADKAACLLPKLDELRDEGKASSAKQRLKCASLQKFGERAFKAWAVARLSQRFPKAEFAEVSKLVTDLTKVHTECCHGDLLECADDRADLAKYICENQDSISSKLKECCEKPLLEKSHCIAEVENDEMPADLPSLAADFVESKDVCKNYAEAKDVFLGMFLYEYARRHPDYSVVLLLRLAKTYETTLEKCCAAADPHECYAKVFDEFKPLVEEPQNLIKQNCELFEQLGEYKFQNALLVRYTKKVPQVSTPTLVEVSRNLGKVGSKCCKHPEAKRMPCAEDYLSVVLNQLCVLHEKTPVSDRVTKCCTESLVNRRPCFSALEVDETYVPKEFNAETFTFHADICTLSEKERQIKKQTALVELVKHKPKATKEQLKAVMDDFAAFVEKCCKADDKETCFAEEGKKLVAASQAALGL
Method: (§1) Protein binding was also evaluated in an in vitro study in human, mouse, rat, and dog plasma using equilibrium dialysis (12-14K molecular weight cut-off membrane). This study measured the binding of (^14C)-cilansetron in plasma at nominal concentrations (30, 90, and 300 ng/mL) which are much higher than those encountered in vivo in humans. This study also measured the binding of (^14C)-cilansetron to purified human serum albumin at cilansetron concentrations ranging from 30-3000 ng/mL and to purified human alpha-1 acid glycoprotein (AAG) at concentrations ranging from 30-10000 ng/mL.

[4] = test system: purified human alpha-1 acid glycoprotein (AAG); type: in vitro ADME
Method: as §1

[5] = type: in vitro ADME
Method: as §1

Cc1nccn1C[C@H]1CCc2c(c3cccc4c3n2CCC4)C1=O [Cilansetron, (R)-(−)-4,5,6,8,9,10-hexahydro-10-[(2-methyl-1H-imidazol-1-yl)methyl]-11H-pyrido-[3,2,1-jk]-carbazol-11-one]
CL/F (clinical; 4 mg): 3864 (69) mL/min | CL/F (clinical; 8 mg): 3851 (103) mL/min | DN-AUC(0-inf) ratio 8 mg/4 mg (clinical; male): 109% | DN-AUC(0-inf) ratio 16 mg/4 mg (clinical; male): 117% | DN-AUC(0-inf) ratio 16 mg/8 mg (clinical; male): 108% | DN-AUC(0-last) ratio 8 mg/4 mg (clinical; male): 120% | DN-AUC(0-last) ratio 16 mg/4 mg (clinical; male): 132% | DN-AUC(0-last) ratio 16 mg/8 mg (clinical; male): 110% | DN-Cmax ratio 8 mg/4 mg (clinical; male): 115% | DN-Cmax ratio 16 mg/4 mg (clinical; male): 122% | DN-Cmax ratio 16 mg/8 mg (clinical; male): 107% | Dose excreted unchanged in urine (clinical; male): < 1% | Tmax (clinical; male): 1 to 1.25 h | half-life (clinical; male): 1.2 to 1.6 h | AUC(0-inf) (clinical; male, 4 mg): 26.7 ng·h/mL | AUC(0-t) (clinical; male, 4 mg): 23.2 ng·h/mL | Cmax (clinical; male, 4 mg): 9.88 ng/mL | Tmax (clinical; male, 4 mg): 1.25 h | Vd/F (clinical; male, 4 mg): 522 L | half-life (clinical; male, 4 mg): 1.56 h | AUC(0-inf) (clinical; male, 8 mg): 59.4 ng·h/mL | AUC(0-t) (clinical; male, 8 mg): 55.5 ng·h/mL | Cmax (clinical; male, 8 mg): 22.1 ng/mL | Tmax (clinical; male, 8 mg): 1 h | Vd/F (clinical; male, 8 mg): 472 L | half-life (clinical; male, 8 mg): 1.47 h | Tmax (clinical; male, 16 mg): 1 h | Pressure first producing abdominal pain, Differences from Placebo (healthy subjects; 4 mg single IV dose): 0.67 mmHg | Pressure first producing feeling of abdominal sensation, Differences from Placebo (healthy subjects; 4 mg single IV dose): −1.00 mmHg | Pressure first producing feeling of need to defecate, Differences from Placebo (healthy subjects; 4 mg single IV dose): −0.67 mmHg | Volume first producing abdominal pain, Differences from Placebo (healthy subjects; 4 mg single IV dose): 12.7 mL | Volume first producing feeling of abdominal sensation, Differences from Placebo (healthy subjects; 4 mg single IV dose): -20.0 mL | Volume first producing feeling of need to defecate, Differences from Placebo (healthy subjects; 4 mg single IV dose): -8.75 mL | Pressure first producing abdominal pain (healthy subjects; 4 mg single IV dose): 31.0 mmHg | Pressure first producing feeling of abdominal sensation (healthy subjects; 4 mg single IV dose): 12.7 mmHg | Pressure first producing feeling of need to defecate (healthy subjects; 4 mg single IV dose): 20.3 mmHg | Volume first producing abdominal pain (healthy subjects; 4 mg single IV dose): 310 mL | Volume first producing feeling of abdominal sensation (healthy subjects; 4 mg single IV dose): 132 mL | Volume first producing feeling of need to defecate (healthy subjects; 4 mg single IV dose): 233 mL | Pressure first producing abdominal pain, Differences from Placebo (healthy subjects; 8 mg single IV dose): 2.00 mmHg | Pressure first producing feeling of abdominal sensation, Differences from Placebo (healthy subjects; 8 mg single IV dose): −1.67 mmHg | Pressure first producing feeling of need to defecate, Differences from Placebo (healthy subjects; 8 mg single IV dose): −0.67 mmHg | Volume first producing abdominal pain, Differences from Placebo (healthy subjects; 8 mg single IV dose): -0.83 mL | Volume first producing feeling of abdominal sensation, Differences from Placebo (healthy subjects; 8 mg single IV dose): -19.2 mL | Volume first producing feeling of need to defecate, Differences from Placebo (healthy subjects; 8 mg single IV dose): -10.0 mL | Pressure first producing abdominal pain (healthy subjects; 8 mg single IV dose): 32.3 mmHg | Pressure first producing feeling of abdominal sensation (healthy subjects; 8 mg single IV dose): 12.0 mmHg | Pressure first producing feeling of need to defecate (healthy subjects; 8 mg single IV dose): 20.3 mmHg | Volume first producing abdominal pain (healthy subjects; 8 mg single IV dose): 297 mL | Volume first producing feeling of abdominal sensation (healthy subjects; 8 mg single IV dose): 133 mL | Volume first producing feeling of need to defecate (healthy subjects; 8 mg single IV dose): 232 mL | Pressure first producing abdominal pain, Differences from Placebo (healthy subjects; 16 mg single IV dose): 1.33 mmHg | Pressure first producing feeling of abdominal sensation, Differences from Placebo (healthy subjects; 16 mg single IV dose): −1.00 mmHg | Pressure first producing feeling of need to defecate, Differences from Placebo (healthy subjects; 16 mg single IV dose): −1.00 mmHg | Volume first producing abdominal pain, Differences from Placebo (healthy subjects; 16 mg single IV dose): 15.8 mL | Volume first producing feeling of abdominal sensation, Differences from Placebo (healthy subjects; 16 mg single IV dose): -14.2 mL | Volume first producing feeling of need to defecate, Differences from Placebo (healthy subjects; 16 mg single IV dose): -3.75 mL | Pressure first producing abdominal pain (healthy subjects; 16 mg single IV dose): 31.7 mmHg | Pressure first producing feeling of abdominal sensation (healthy subjects; 16 mg single IV dose): 12.7 mmHg | Pressure first producing feeling of need to defecate (healthy subjects; 16 mg single IV dose): 20.0 mmHg | Volume first producing abdominal pain (healthy subjects; 16 mg single IV dose): 313 mL | Volume first producing feeling of abdominal sensation (healthy subjects; 16 mg single IV dose): 138 mL | Volume first producing feeling of need to defecate (healthy subjects; 16 mg single IV dose): 238 mL | Inductive effect on other CYP isozymes [1]: did not show an inductive effect | Increase in half-life with hepatic impairment [2]: 2 fold | AUC increase with hepatic impairment ([2]; 8 mg): 88% | Cmax increase with hepatic impairment ([2]; 8 mg): 22% | AUC(0-τ) Ratio ([2]; po, 8 mg): 1.88 | AUC(0-τ), Geom. LS Mean ([2]; po, 8 mg): 178 ng·h/mL | Cmax ([2]; po, 8 mg): 75.2 (40) ng/mL | Cmax Ratio ([2]; po, 8 mg): 1.22 | Cmax, Geom. LS Mean ([2]; po, 8 mg): 68.7 ng/mL | T½ ([2]; po, 8 mg): 4.37 (25) h | Vz/F ([2]; po, 8 mg): 303 (45) L | CYP3A4 mRNA induction (CYP3A4): did not induce | Binding to human albumin [3]: 65.9% | Binding to AAG [4]: around 90% | Plasma binding ([5]; dog): 86.5% | Plasma binding ([5]; mouse): 83.3% | Plasma binding ([5]; rat): 88.2%
